Assays:
aggrecanase-1 = biological target: T1, aggrecanase-1 (Homo sapiens, UniProt O75173); assay: Aggrecanase-1 inhibitory action, Particle Assay (GAG release from aggrecan-containing polyacrylamide particles); format: biochemical; settings: 37° C. for 15 hr, read-out: Experimental Example 1 IC50 AG1
T1 sequence (O75173 213-837): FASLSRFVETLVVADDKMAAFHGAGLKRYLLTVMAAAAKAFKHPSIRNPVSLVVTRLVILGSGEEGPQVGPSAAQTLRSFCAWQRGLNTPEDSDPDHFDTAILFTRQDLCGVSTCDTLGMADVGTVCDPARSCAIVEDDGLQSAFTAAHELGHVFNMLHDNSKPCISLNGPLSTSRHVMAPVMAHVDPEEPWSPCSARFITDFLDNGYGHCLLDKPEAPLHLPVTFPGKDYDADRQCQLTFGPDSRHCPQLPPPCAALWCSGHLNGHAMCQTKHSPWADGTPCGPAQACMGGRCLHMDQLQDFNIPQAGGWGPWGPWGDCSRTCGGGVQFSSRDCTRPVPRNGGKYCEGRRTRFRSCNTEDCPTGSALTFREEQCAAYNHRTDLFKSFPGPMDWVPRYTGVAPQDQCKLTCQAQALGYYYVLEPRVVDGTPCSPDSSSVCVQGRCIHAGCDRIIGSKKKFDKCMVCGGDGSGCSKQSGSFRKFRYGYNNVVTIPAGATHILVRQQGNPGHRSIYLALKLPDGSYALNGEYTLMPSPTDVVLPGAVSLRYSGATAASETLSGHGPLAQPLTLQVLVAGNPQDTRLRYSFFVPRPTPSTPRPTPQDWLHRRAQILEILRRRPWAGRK
Experimental: Aggrecanase-1 Inhibitory Action
Particle Assay was used for determination of aggrecanase activity.
(§1) The enzyme and substrate were diluted with Tris-HCl buffer, and test compounds were diluted with dimethyl sulfoxide (DMSO).
Test compounds and the enzyme were added into 96-well plate, and polyacrylamide particles containing aggrecan were added as a substrate and the mixture was incubated at 37° C. for 15 hr.
After incubation; the supernatant was transferred to another plate, and mixed with 1,9-dimethylmethylene blue. The absorbance at 595 nm was measured to quantify the amount of glycosaminoglycan (GAG) released in the reaction supernatant. Whale chondroitin sulfate was used as the standard of GAG. The inhibitory activity of the compound in each well (%) was calculated based on the values of enzyme-free well and inhibitor-free well. The inhibitory activity of the compound was represented as IC50 (μM).

MMP-1 = biological target: T2, MMP-1 (Homo sapiens, UniProt P03956); assay: MMP-1 inhibitory action, Type I collagen Activity Measurement kit (FITC-labeled collagen type I); format: biochemical; settings: 37° C. for 3 hr, read-out: Experimental Example 2 IC50 MMP1
T2 sequence (P03956 100-469): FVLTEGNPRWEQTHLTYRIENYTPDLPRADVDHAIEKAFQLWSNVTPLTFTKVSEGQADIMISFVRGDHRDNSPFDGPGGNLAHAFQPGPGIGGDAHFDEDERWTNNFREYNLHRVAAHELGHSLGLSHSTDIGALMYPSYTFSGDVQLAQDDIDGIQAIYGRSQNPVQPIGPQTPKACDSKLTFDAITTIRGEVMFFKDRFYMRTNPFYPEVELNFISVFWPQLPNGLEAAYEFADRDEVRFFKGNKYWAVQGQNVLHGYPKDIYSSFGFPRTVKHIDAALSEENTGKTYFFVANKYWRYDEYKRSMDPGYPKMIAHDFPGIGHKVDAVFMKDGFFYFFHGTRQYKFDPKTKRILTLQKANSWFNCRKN
Experimental: For MMP-1 Assay, Type I collagen Activity Measurement kit (YAGAI YU-72013) modified to a 96-well plate format was used.
The principle of the kit is based on the property of collagen that becomes soluble in ethanol after being cleaved by MMP-1.
as §1
The enzyme and test compounds were added into 96-well plate, and fluorescein isothiocianate (FITC)-labeled collagen type I was added as a substrate and the mixture was incubated at 37° C. for 3 hr.
The reaction was terminated by addition of Tris-HCl buffer containing ethanol. After centrifugation, the supernatant containing denatured substrate was transferred to another 96-well plate. The collagenase activity of MMP-1 was determined by measuring FITC fluorescence intensity (excitation wavelength 485 nm, emission wavelength 530 nm) of each well. The inhibitory activity of the compound in each well (%) was calculated based on the values of enzyme-free well and inhibitor-free well. The inhibitory activity of the compound was represented as IC50 (μM).

`CC(C)(C)OC(=O)NCCN([C@]1(C(=O)O)C[C@H]1c1ccccc1)S(=O)(=O)c1ccc(-c2ccc(Cl)cc2)cc1` (relative stereo) [Example 1-4, (1R*,2S*)-1-[(2-tert-butoxycarbonylamino-ethyl)-(4′-chloro-biphenyl-4-sulfonyl)-amino]-2-phenyl-cyclopropanecarboxylic acid] was tested, and the IC50 (aggrecanase-1) was under 1 µM and the IC50 (MMP-1) was at least 10 µM.
`O=C(O)[C@@]1(N(Cc2cc(=O)[nH][nH]2)S(=O)(=O)c2ccc(-c3ccc(Cl)cc3)cc2)C[C@H]1c1ccccc1` (relative stereo) [Example 1-5, (1R*,2S*)-1-[(4′-chloro-biphenyl-4-sulfonyl)-(5-oxo-2,5-dihydro-1H-pyrazol-3-ylmethyl)-amino]-2-phenyl-cyclopropanecarboxylic acid] showed an IC50 (aggrecanase-1) of under 1 µM and an IC50 (MMP-1) of at least 10 µM.
Compound `CS(=O)(=O)NCCN([C@]1(C(=O)O)C[C@H]1c1ccccc1)S(=O)(=O)c1ccc(-c2ccc(Cl)cc2)cc1` (relative stereo) [Example 1-7, (1R*,2S*)-1-[(4′-chloro-biphenyl-4-sulfonyl)-(2-methanesulfonylamino-ethyl)-amino]-2-phenyl-cyclopropanecarboxylic acid] has an IC50 (aggrecanase-1) of under 1 µM and an IC50 (MMP-1) of at least 10 µM.
For `CC(C)OC(=O)NS(=O)(=O)NCCN([C@]1(C(=O)O)C[C@H]1c1ccccc1)S(=O)(=O)c1ccc(-c2ccc(Cl)cc2)cc1` (relative stereo) [Example 1-9, (1R*, 2S*)-1-[(4′-chloro-biphenyl-4-sulfonyl)-(2-isopropoxycarbonylaminosulfonylamino-ethyl)-amino]-2-phenyl-cyclopropanecarboxylic acid], the IC50 (aggrecanase-1) was under 1 µM and the IC50 (MMP-1) was at least 10 µM.
Compound `O=C(O)c1ccc(CN([C@]2(C(=O)O)C[C@H]2c2ccccc2)S(=O)(=O)c2ccc(-c3ccc(Cl)cc3)cc2)cc1` (relative stereo) [Example 1-10, (1R*,2S*)-4-{[(1-carboxy-2-phenyl-cyclopropyl)-(4′-chloro-biphenyl-4-sulfonyl)-amino]-methyl}-benzoic acid] has an IC50 (aggrecanase-1) of under 0.1 µM and an IC50 (MMP-1) of at least 10 µM.
`O=C(O)CN([C@]1(C(=O)O)C[C@H]1c1ccc(Cl)cc1)S(=O)(=O)c1ccc(-c2ccc(Cl)cc2)cc1` (relative stereo) [Example 1-11, (1R*,2S*)-1-[carboxymethyl-(4′-chloro-biphenyl-4-sulfonyl)-amino]-2-(4-chloro-phenyl)-cyclopropanecarboxylic acid] showed an IC50 (aggrecanase-1) of under 1 µM and an IC50 (MMP-1) of at least 10 µM.
In the case of `O=C(O)CN([C@]1(C(=O)O)C[C@H]1c1cccc(Cl)c1)S(=O)(=O)c1ccc(-c2ccc(Cl)cc2)cc1` (relative stereo) [Example 1-12, (1R*,2S*)-1-[carboxymethyl-(4′-chloro-biphenyl-4-sulfonyl)-amino]-2-(3-chloro-phenyl)-cyclopropanecarboxylic acid], the IC50 (aggrecanase-1) is reported as under 1 µM and the IC50 (MMP-1) is reported as at least 10 µM.
For `O=C(O)CN([C@]1(C(=O)O)C[C@H]1c1ccccc1Cl)S(=O)(=O)c1ccc(-c2ccc(Cl)cc2)cc1` (relative stereo) [Example 1-13, (1R*,2S*)-1-[carboxymethyl-(4′-chloro-biphenyl-4-sulfonyl)-amino]-2-(2-chloro-phenyl)-cyclopropanecarboxylic acid], the IC50 (aggrecanase-1) was under 1 µM and the IC50 (MMP-1) was at least 10 µM.
For `O=C(O)[C@@]1(N(Cc2nn[nH]n2)S(=O)(=O)c2ccc(-c3ccc(Cl)cc3)cc2)C[C@H]1c1ccccc1` (relative stereo) [Example 1-15, (1R*,2S*)-1-[(4′-chloro-biphenyl-4-sulfonyl)-(2H-tetrazol-5-ylmethyl)-amino]-2-phenyl-cyclopropanecarboxylic acid], the IC50 (aggrecanase-1) was under 1 µM and the IC50 (MMP-1) was at least 10 µM.
`O=C(O)[C@@]1(N(Cc2cccc(O)c2)S(=O)(=O)c2ccc(-c3ccc(Cl)cc3)cc2)C[C@H]1c1ccccc1` (relative stereo) [Example 1-17, (1R*,2S*)-1-[(4′-chloro-biphenyl-4-sulfonyl)-(3-hydroxy-benzyl)-amino]-2-phenyl-cyclopropanecarboxylic acid] gave an IC50 (aggrecanase-1) of under 1 µM and an IC50 (MMP-1) of at least 10 µM.
`Cc1ccc([C@@H]2C[C@@]2(C(=O)O)N(CC(=O)O)S(=O)(=O)c2ccc(-c3ccc(Cl)cc3)cc2)cc1` (relative stereo) [Example 1-18, (1R*,2S*)-1-[carboxymethyl-(4′-chloro-biphenyl-4-sulfonyl)-amino]-2-(4-methyl-phenyl)-cyclopropanecarboxylic acid] showed an IC50 (aggrecanase-1) of under 1 µM and an IC50 (MMP-1) of at least 10 µM.
Work on `Cc1ccccc1[C@@H]1C[C@@]1(C(=O)O)N(CC(=O)O)S(=O)(=O)c1ccc(-c2ccc(Cl)cc2)cc1` (relative stereo) [Example 1-19, (1R*,2S*)-1-[carboxymethyl-(4′-chloro-biphenyl-4-sulfonyl)-amino]-2-(2-methyl-phenyl)-cyclopropanecarboxylic acid] yielded an IC50 (aggrecanase-1) of under 1 µM and an IC50 (MMP-1) of at least 10 µM.
Compound `Cc1cccc([C@@H]2C[C@@]2(C(=O)O)N(CC(=O)O)S(=O)(=O)c2ccc(-c3ccc(Cl)cc3)cc2)c1` (relative stereo) [Example 1-20, (1R*,2S*)-1-[carboxymethyl-(4′-chloro-biphenyl-4-sulfonyl)-amino]-2-(3-methyl-phenyl)-cyclopropanecarboxylic acid] has an IC50 (aggrecanase-1) of under 1 µM and an IC50 (MMP-1) of at least 10 µM.
`COc1ccccc1[C@@H]1C[C@@]1(C(=O)O)N(CC(=O)O)S(=O)(=O)c1ccc(-c2ccc(Cl)cc2)cc1` (relative stereo) [Example 1-22, (1R*,2S*)-1-[carboxymethyl-(4′-chloro-biphenyl-4-sulfonyl)-amino]-2-(2-methoxy-phenyl)-cyclopropanecarboxylic acid] showed an IC50 (aggrecanase-1) of under 1 µM and an IC50 (MMP-1) of at least 10 µM.
`O=C(O)CN([C@]1(C(=O)O)C[C@H]1c1ccc(Cl)c(Cl)c1)S(=O)(=O)c1ccc(-c2ccc(Cl)cc2)cc1` (relative stereo) [Example 1-23, (1R*,2S*)-1-[carboxymethyl-(4′-chloro-biphenyl-4-sulfonyl)-amino]-2-(3,4-dichloro-phenyl)-cyclopropanecarboxylic acid] was tested, and the IC50 (aggrecanase-1) was under 1 µM and the IC50 (MMP-1) was at least 10 µM.
`O=C(O)CN([C@]1(C(=O)O)C[C@H]1c1cc(Cl)ccc1Cl)S(=O)(=O)c1ccc(-c2ccc(Cl)cc2)cc1` (relative stereo) [Example 1-24, (1R*,2S*)-1-[carboxymethyl-(4′-chloro-biphenyl-4-sulfonyl)-amino]-2-(2,5-dichloro-phenyl)-cyclopropanecarboxylic acid] was tested, and the IC50 (aggrecanase-1) was under 1 µM and the IC50 (MMP-1) was at least 10 µM.
`O=C(O)CN([C@]1(C(=O)O)C[C@H]1c1cccc(Oc2ccccc2)c1)S(=O)(=O)c1ccc(-c2ccc(Cl)cc2)cc1` (relative stereo) [Example 1-25, (1R*,2S*)-1-[carboxymethyl-(4′-chloro-biphenyl-4-sulfonyl)-amino]-2-(3-phenoxy-phenyl)-cyclopropanecarboxylic acid] was tested, and the IC50 (aggrecanase-1) was under 0.1 µM and the IC50 (MMP-1) was at least 10 µM.
In the case of `O=C(O)CN([C@]1(C(=O)O)C[C@H]1c1ccccc1-c1ccccc1)S(=O)(=O)c1ccc(-c2ccc(Cl)cc2)cc1` (relative stereo) [Example 1-26, (1R*,2S*)-2-biphenyl-2-yl-1-[carboxymethyl-(4′-chloro-biphenyl-4-sulfonyl)-amino]-cyclopropanecarboxylic acid], the IC50 (aggrecanase-1) is reported as under 1 µM and the IC50 (MMP-1) is reported as at least 10 µM.
Compound `N#Cc1cccc([C@@H]2C[C@@]2(C(=O)O)N(CC(=O)O)S(=O)(=O)c2ccc(-c3ccc(Cl)cc3)cc2)c1` (relative stereo) [Example 1-27, (1R*,2S*)-1-[carboxymethyl-(4′-chloro-biphenyl-4-sulfonyl)-amino]-2-(3-cyano-phenyl)-cyclopropanecarboxylic acid] has an IC50 (aggrecanase-1) of under 0.1 µM and an IC50 (MMP-1) of at least 10 µM.

Source: patent US20050222146A1, “N-substituted-n-sulfonylaminocyclopropane compounds and pharmaceutical use thereof” (priority 2003, published 2005)
